Results from patent publication US20230255953A1, “USE OF ROLUPERIDONE IN PREVENTING RELAPSE IN SCHIZOPHRENIA PATIENTS” (Minerva Neurosciences, Inc., priority 2022, published 2023).

Tests used:
[1] = test system: patients with negative symptoms of schizophrenia; test: Study #2 (MIN-101C07): Total Verbal Fluency; format: in vivo, human; settings: Week 12 DB, ITT
Source text: Study #2 (also referred to as “MIN101C07”) was a Phase 3, randomized, DB, placebo-controlled, parallel-group 12-week study to evaluate the efficacy and safety of Roluperidone in patients ≥18 years to ≤55 years with negative symptoms of schizophrenia, followed by a 40-week OL extension. The study consisted of a pretreatment screening period of up to 28 days (including an antipsychotic medication washout period), a 12-week, DB, placebo-controlled period, and a 40-week OL period. Eligible patients (with moderate to severe negative symptoms of schizophrenia and stable positive symptoms but without severe symptoms of suspiciousness, agitation, hostility, uncooperativeness, or poor impulse control) were randomized 1:1:1 to receive Roluperidone 32 mg QD, Roluperidone 64 mg QD (GR01/B formulation, see U.S. Pat. No. 11,464,744), or placebo, orally, for 12 weeks. […] During the 40-week OL treatment extension, patients who were initially randomized to Roluperidone 32 mg or 64 mg continued treatment with the same dose, while patients who were initially randomized to placebo crossed over to Roluperidone 32 mg or 64 mg in a 1:1 ratio.

[2] = test system: patients with negative symptoms of schizophrenia; test: Integrated analysis (pooled ITT): CGI-S and CGI-I; format: in vivo, human; settings: for CGI-I Score, Difference (95% CI) in LS mean (vs placebo) / CGI-I Score, LS mean (SE) / CGI-I Score, Mean (SD) / CGI-I Score, Median / CGI-S Score change from Baseline, LS mean (SE) / CGI-S Score change from Baseline, Mean (SD) / CGI-S Score change from Baseline, Median / CGI-S Score, Difference (95% CI) in LS mean (vs placebo): DB; for CGI-I Score, Difference (95% CI) in LS mean (vs placebo) / CGI-I Score, LS mean (SE) / CGI-I Score, Mean (SD) / CGI-I Score, Median / CGI-S Score change from Baseline, LS mean (SE) / CGI-S Score change from Baseline, Mean (SD) / CGI-S Score change from Baseline, Median / CGI-S Score, Difference (95% CI) in LS mean (vs placebo) / CGI-I score, LS mean compared with placebo / CGI-S score, LS mean change from Baseline compared with placebo: pooled ITT; for Clinical Global Impression of Severity, Change from Baseline (LS Means [SEM]) / Clinical Global Impression of Improvement (LS Means [SEM]): ITT; for Clinical Global Impression of Improvement (LS Means [SEM]): observed data, MMRM with Baseline CGI-S as covariate
Source text: The primary integrated analysis of the efficacy of Roluperidone compared with placebo for the treatment of negative symptoms of schizophrenia is based on the change from Baseline in the PANSS Marder's negative symptoms factor score (in this document referred to as NSFS) to Week 12. Efficacy is also supported by the analysis of change from Baseline in the PSP Total score and the CGI-S to Week 12.
The CGI-S is a clinician-rated scale that is designed to rate the severity of the patient's illness at the time of assessment, including knowledge of the patient's history, psychosocial circumstances, symptoms, behavior, and the impact of the symptoms on the patient's ability to function relative to the clinician's past experience with patients who have the same diagnosis and similar improvement with treatment. Considering total clinical experience, a patient is assessed on severity of mental illness at the time of rating, where 1=normal (not at all ill); 2=borderline mentally ill; 3=mildly ill; 4=moderately ill; 5=markedly ill; 6=severely ill; or 7=extremely ill.
The Efficacy data from Study Nos. 1 and 2 were pooled. The majority of patients in the pooled ITT population completed the DB period (502 patients overall, 66.3%), with similar rates in each treatment group (placebo: 69.8%, 32 mg Roluperidone: 65.3%, and 64 mg Roluperidone: 63.8%) (Table 12). The majority (62.7%) of those who completed the DB period entered the OL period. The most common reason for discontinuation during the DB period among patients overall was withdrawal of consent (15.6%), followed by adverse events (7.3%) and lack of efficacy (5.4%) (Table 12). […] Approximately twice as many patients in the Roluperidone groups (32 mg: 8.5%; 64 mg: 9.1%) discontinued due to adverse events compared with patients in the placebo group (4.3%). More patients in the placebo group discontinued due to lack of efficacy (6.7%) than in the Roluperidone groups (32 mg: 4.4%; 64 mg: 5.1%). The low number of patients who discontinued due to lack of efficacy or withdrawal of consent probably reflects a low level of worsening of positive symptoms.
The integrated analysis supporting the efficacy of Roluperidone as a treatment for the negative symptoms of schizophrenia in adults is presented below.

muscarinic receptors = settings: background statement; cited from earlier work
histaminergic receptors = settings: background statement; cited from earlier work

1H-Isoindol-1-one,2-[ [1-[2-(4-fluorophenyl)-2-oxoethyl]-4-piperidinyl]methyl]-2,3-dihydro-, hydrochloride, hydrate (1:1:2) [Roluperidone]
Change from Baseline LS Mean: Total Verbal Fluency (sum of 3 trials) ([1]; 32 mg QD): 3.9 | Effect Size (Cohen's d) vs Placebo: Total Verbal Fluency ([1]; 32 mg QD): 0.21 | Change from Baseline LS Mean: Total Verbal Fluency (sum of 3 trials) ([1]; 64 mg QD): 1.7 | Effect Size (Cohen's d) vs Placebo: Total Verbal Fluency ([1]; 64 mg QD): −0.10 | CGI-I Score, Difference (95% CI) in LS mean (vs placebo) ([2]; 32 mg, Week 2): 0.0 | CGI-I Score, LS mean (SE) ([2]; 32 mg, Week 2): 3.9 (0.05) | CGI-I Score, Mean (SD) ([2]; 32 mg, Week 2): 3.9 (0.68) | CGI-I Score, Median ([2]; 32 mg, Week 2): 4.0 | CGI-S Score change from Baseline, LS mean (SE) ([2]; 32 mg, Week 2): −0.1 (0.04) | CGI-S Score change from Baseline, Mean (SD) ([2]; 32 mg, Week 2): −0.1 (0.47) | CGI-S Score change from Baseline, Median ([2]; 32 mg, Week 2): 0.0 | CGI-S Score, Difference (95% CI) in LS mean (vs placebo) ([2]; 32 mg, Week 2): 0.0 | CGI-I Score, Difference (95% CI) in LS mean (vs placebo) ([2]; 32 mg, Week 4): −0.2 | CGI-I Score, LS mean (SE) ([2]; 32 mg, Week 4): 3.6 (0.05) | CGI-I Score, Mean (SD) ([2]; 32 mg, Week 4): 3.6 (0.76) | CGI-I Score, Median ([2]; 32 mg, Week 4): 4.0 | CGI-S Score change from Baseline, LS mean (SE) ([2]; 32 mg, Week 4): −0.1 (0.03) | CGI-S Score change from Baseline, Mean (SD) ([2]; 32 mg, Week 4): −0.1 (0.50) | CGI-S Score change from Baseline, Median ([2]; 32 mg, Week 4): 0.0 | CGI-S Score, Difference (95% CI) in LS mean (vs placebo) ([2]; 32 mg, Week 4): −0.1 | CGI-I Score, Difference (95% CI) in LS mean (vs placebo) ([2]; 32 mg, Week 8): −0.1 | CGI-I Score, LS mean (SE) ([2]; 32 mg, Week 8): 3.5 (0.06) | CGI-I Score, Mean (SD) ([2]; 32 mg, Week 8): 3.4 (0.80) | CGI-I Score, Median ([2]; 32 mg, Week 8): 3.0 | CGI-S Score change from Baseline, LS mean (SE) ([2]; 32 mg, Week 8): −0.2 (0.04) | CGI-S Score change from Baseline, Mean (SD) ([2]; 32 mg, Week 8): −0.3 (0.58) | CGI-S Score change from Baseline, Median ([2]; 32 mg, Week 8): 0.0 | CGI-S Score, Difference (95% CI) in LS mean (vs placebo) ([2]; 32 mg, Week 8): −0.1 | CGI-I Score, Difference (95% CI) in LS mean (vs placebo) ([2]; 32 mg, Week 12): −0.0 | CGI-I Score, LS mean (SE) ([2]; 32 mg, Week 12): 3.5 (0.07) | CGI-I Score, Mean (SD) ([2]; 32 mg, Week 12): 3.4 (0.82) | CGI-I Score, Median ([2]; 32 mg, Week 12): 3.0 | CGI-S Score change from Baseline, LS mean (SE) ([2]; 32 mg, Week 12): −0.3 (0.05) | CGI-S Score change from Baseline, Mean (SD) ([2]; 32 mg, Week 12): −0.4 (0.65) | CGI-S Score change from Baseline, Median ([2]; 32 mg, Week 12): 0.0 | CGI-S Score, Difference (95% CI) in LS mean (vs placebo) ([2]; 32 mg, Week 12): −0.1 | Clinical Global Impression of Severity, Change from Baseline (LS Means [SEM]) ([2]; 32 mg, Week 12): −0.3 (0.05) | Clinical Global Impression of Improvement (LS Means [SEM]) ([2]; 32 mg, Week 12): 3.5 (0.07) | CGI-I score, LS mean compared with placebo ([2]; 32 mg, Week 12): −0.0 | CGI-S score, LS mean change from Baseline compared with placebo ([2]; 32 mg, Week 12): −0.1 | CGI-I Score, Difference (95% CI) in LS mean (vs placebo) ([2]; 64 mg, Week 2): 0.0 | CGI-I Score, LS mean (SE) ([2]; 64 mg, Week 2): 3.8 (0.05) | CGI-I Score, Mean (SD) ([2]; 64 mg, Week 2): 3.8 (0.74) | CGI-I Score, Median ([2]; 64 mg, Week 2): 4.0 | CGI-S Score change from Baseline, LS mean (SE) ([2]; 64 mg, Week 2): −0.1 (0.04) | CGI-S Score change from Baseline, Mean (SD) ([2]; 64 mg, Week 2): −0.1 (0.55) | CGI-S Score change from Baseline, Median ([2]; 64 mg, Week 2): 0.0 | CGI-S Score, Difference (95% CI) in LS mean (vs placebo) ([2]; 64 mg, Week 2): −0.0 | CGI-I Score, Difference (95% CI) in LS mean (vs placebo) ([2]; 64 mg, Week 4): −0.2 | CGI-I Score, LS mean (SE) ([2]; 64 mg, Week 4): 3.6 (0.05) | CGI-I Score, Mean (SD) ([2]; 64 mg, Week 4): 3.5 (0.72) | CGI-I Score, Median ([2]; 64 mg, Week 4): 4.0 | CGI-S Score change from Baseline, LS mean (SE) ([2]; 64 mg, Week 4): −0.2 (0.03) | CGI-S Score change from Baseline, Mean (SD) ([2]; 64 mg, Week 4): −0.3 (0.56) | CGI-S Score change from Baseline, Median ([2]; 64 mg, Week 4): 0.0 | CGI-S Score, Difference (95% CI) in LS mean (vs placebo) ([2]; 64 mg, Week 4): −0.2 | CGI-I Score, Difference (95% CI) in LS mean (vs placebo) ([2]; 64 mg, Week 8): −0.2 | CGI-I Score, LS mean (SE) ([2]; 64 mg, Week 8): 3.4 (0.06) | CGI-I Score, Mean (SD) ([2]; 64 mg, Week 8): 3.4 (0.81) | CGI-I Score, Median ([2]; 64 mg, Week 8): 3.0 | CGI-S Score change from Baseline, LS mean (SE) ([2]; 64 mg, Week 8): −0.3 (0.04) | CGI-S Score change from Baseline, Mean (SD) ([2]; 64 mg, Week 8): −0.3 (0.66) | CGI-S Score change from Baseline, Median ([2]; 64 mg, Week 8): 0.0 | CGI-S Score, Difference (95% CI) in LS mean (vs placebo) ([2]; 64 mg, Week 8): −0.2 | CGI-I Score, Difference (95% CI) in LS mean (vs placebo) ([2]; 64 mg, Week 12): −0.2 | CGI-I Score, LS mean (SE) ([2]; 64 mg, Week 12): 3.4 (0.07) | CGI-I Score, Mean (SD) ([2]; 64 mg, Week 12): 3.3 (0.85) | CGI-I Score, Median ([2]; 64 mg, Week 12): 3.0 | CGI-S Score change from Baseline, LS mean (SE) ([2]; 64 mg, Week 12): −0.4 (0.05) | CGI-S Score change from Baseline, Mean (SD) ([2]; 64 mg, Week 12): −0.4 (0.69) | CGI-S Score change from Baseline, Median ([2]; 64 mg, Week 12): 0.0 | CGI-S Score, Difference (95% CI) in LS mean (vs placebo) ([2]; 64 mg, Week 12): −0.2 | Clinical Global Impression of Severity, Change from Baseline (LS Means [SEM]) ([2]; 64 mg, Week 12): −0.4 (0.05) | Clinical Global Impression of Improvement (LS Means [SEM]) ([2]; 64 mg, Week 12): 3.4 (0.07) | CGI-I score, LS mean compared with placebo ([2]; 64 mg, Week 12): −0.2 | CGI-S score, LS mean change from Baseline compared with placebo ([2]; 64 mg, Week 12): −0.2 | CGI-I Score, Mean (SD) ([2]; Roluperidone Total, Week 2): 3.9 (0.71) | CGI-I Score, Median ([2]; Roluperidone Total, Week 2): 4.0 | CGI-S Score change from Baseline, Mean (SD) ([2]; Roluperidone Total, Week 2): −0.1 (0.51) | CGI-S Score change from Baseline, Median ([2]; Roluperidone Total, Week 2): 0.0 | CGI-I Score, Mean (SD) ([2]; Roluperidone Total, Week 4): 3.6 (0.74) | CGI-I Score, Median ([2]; Roluperidone Total, Week 4): 4.0 | CGI-S Score change from Baseline, Mean (SD) ([2]; Roluperidone Total, Week 4): −0.2 (0.54) | CGI-S Score change from Baseline, Median ([2]; Roluperidone Total, Week 4): 0.0 | CGI-I Score, Mean (SD) ([2]; Roluperidone Total, Week 8): 3.4 (0.81) | CGI-I Score, Median ([2]; Roluperidone Total, Week 8): 3.0 | CGI-S Score change from Baseline, Mean (SD) ([2]; Roluperidone Total, Week 8): −0.3 (0.62) | CGI-S Score change from Baseline, Median ([2]; Roluperidone Total, Week 8): 0.0 | CGI-I Score, Mean (SD) ([2]; Roluperidone Total, Week 12): 3.3 (0.83) | CGI-I Score, Median ([2]; Roluperidone Total, Week 12): 3.0 | CGI-S Score change from Baseline, Mean (SD) ([2]; Roluperidone Total, Week 12): −0.4 (0.67) | CGI-S Score change from Baseline, Median ([2]; Roluperidone Total, Week 12): 0.0 | Affinity (muscarinic receptors): very low or no affinity | Affinity (histaminergic receptors): very low or no affinity
